From patent US4603128A, “Mineralocorticoid hormone antagonists” (priority 1984, dated 1986) come the findings set out here.

The subject of assay [1] is mineralocorticoid receptor of mammalian kidney. Nature of the assay: Mineralocorticoid receptor affinity (competition with 3H-aldosterone). The note with it: for Corticosteroid Receptor Affinity % Mineralocorticoid: amount of aldosterone vs amount of steroid for 50% reduction in binding of 1.3×10^-9 M 3H-aldosterone, kidney cytosol, aldosterone = 100; for Affinity Mineralocorticoid:Androgen Ratio: ratio of mineralocorticoid to androgen receptor affinity (therapeutic index). Type of assay: binding. As to the method: Each assay tube contained 250 μl cytosol solution and 1,2-^3 H-aldosterone at a final steroid concentration of 1.3×10^-9 M. Standard curves were prepared in the range of 0.1 to 100 ng aldosterone and non-specific binding of 10^-5 M aldosterone was subtracted. The amount of steroid ligand required to effect 50% reduction in the binding of labeled aldosterone compared to the amount of aldosterone to effect the same reduction was expressed as a percentage.

In the next assay the test system is adrenalectomized rat. Nature of the assay: Mineralocorticoid antagonism in vivo, adrenalectomized rat assay (urinary Na/K). The note with it: for In vivo antagonist activity compared with corresponding 7α-propionylthio derivative (Controls A, B, C, D): same substituents at C-21. How it is done: The bioassay for anti-mineralocorticoid activity was carried out as described for the assay of mineralocorticoid agonist activity by Ulick, Land and Chu, (Endocrinology 99:619, 1976), except that the control group received 1 μg of aldosterone per 100 g body weight and the experimental group received the test substance in addition. All results were expressed as ratio of control urinary Na/K to treatment urinary Na/K. The minimum effective dose of antagonist was defined as that amount of test substance required to block one-half of the effect of 1 μg. aldosterone/100 g body weight as measured by the ratio of control: treatment urinary Na/K.

Where [2] appears, read: Rattus norvegicus, sc, subcutaneous, with 1 μg aldosterone per 100 g body weight, dose reducing urinary Na/K effect to one half, inactive = no antagonist activity at 250 μg/100 g, read-out: Mineralocorticoid antagonism Minimum effective dose.
[3] abbreviates: subcutaneous, with 1 μg aldosterone per 100 g body weight, dose reducing urinary Na/K effect to one half, inactive = no antagonist activity at 250 μg/100 g.
Setting [4] is: oral route, adrenalectomized rat, read-out: Mineralocorticoid antagonism Minimum effective dose oral.

Like-named read-outs stand apart in the source and are kept apart here.

In the case of `CC(=O)S[C@@H]1CC2=CC(=O)CC[C@]2(C)[C@H]2CC[C@]3(C)[C@@H](C(C)=O)CC[C@H]3[C@H]12` [Example 1, 7α-Acetylthio-4-pregnene-3,20-dione], in assay [1], the “Corticosteroid Receptor Affinity % Mineralocorticoid” value was found to be 43% and the “Affinity Mineralocorticoid:Androgen Ratio” value is 172. Further, the ED50 in the assay on adrenalectomized rat (setting [2]) was determined as 1 mg/kg. Also, in the assay on adrenalectomized rat, the “In vivo antagonist activity compared with corresponding 7α-propionylthio derivative (Controls A, B, C, D)” value is “always more active”.
`CC(=O)S[C@@H]1CC2=CC(=O)CC[C@]2(C)[C@H]2CC[C@]3(C)[C@@H](C(=O)COC(=O)C(C)(C)C)CC[C@H]3[C@H]12` [Example 8]: in assay [1], the “Corticosteroid Receptor Affinity % Mineralocorticoid” value was 45% and the “Affinity Mineralocorticoid:Androgen Ratio” value was 300. Moreover, in the assay with adrenalectomized rat (setting [2]), the ED50 came out at 0.75 mg/kg.
In the same order, the values of `CCC(=O)OCC(=O)[C@H]1CC[C@H]2[C@@H]3[C@H](SC(C)=O)CC4=CC(=O)CC[C@]4(C)[C@H]3CC[C@]12C` [Example 4] are 38%, 190 and 1 mg/kg.
For the compound `CC(=O)S[C@@H]1CC2=CC(=O)CC[C@]2(C)[C@H]2CC[C@]3(C)[C@@H](C(=O)CO)CC[C@H]3[C@H]12` [Example 2, 7α-Acetylthio-21-hydroxy-4-pregnene-3,20-dione], in assay [1], the “Corticosteroid Receptor Affinity % Mineralocorticoid” value is given as 35% and the “Affinity Mineralocorticoid:Androgen Ratio” value came out at 175. Moreover, the ED50 in the assay with adrenalectomized rat (setting [2]) was 0.75 mg/kg.
As to `CCCCCCC(=O)OCC(=O)[C@H]1CC[C@H]2[C@@H]3[C@H](SC(=O)CC)CC4=CC(=O)CC[C@]4(C)[C@H]3CC[C@]12C` [Control D, 7α-Propionylthio-21-heptanoyloxy-4-pregnene-3,20-dione, reference compound], the “Mineralocorticoid antagonism Minimum effective dose” value in the assay with adrenalectomized rat (setting [3]) was “inactive”.
Consider `CCCCCCC(=O)OCC(=O)[C@H]1CC[C@H]2[C@@H]3[C@H](SC(C)=O)CC4=CC(=O)CC[C@]4(C)[C@H]3CC[C@]12C` [Example 7], for which, in assay [1], the “Corticosteroid Receptor Affinity % Mineralocorticoid” value was determined as 27% and the “Affinity Mineralocorticoid:Androgen Ratio” value stood at 180. Besides, the ED50 in the assay on adrenalectomized rat (setting [2]) came to 0.75 mg/kg. Also, the “In vivo antagonist activity compared with corresponding 7α-propionylthio derivative (Controls A, B, C, D)” value with adrenalectomized rat is given as “always more active”.
Consider `CC(=O)OCC(=O)[C@H]1CC[C@H]2[C@@H]3[C@H](SC(C)=O)CC4=CC(=O)CC[C@]4(C)[C@H]3CC[C@]12C` [Example 3, 7α-Acetylthio-21-acetoxy-4-pregnene-3,20-dione], for which, in assay [1], the “Corticosteroid Receptor Affinity % Mineralocorticoid” value came to 65% and the “Affinity Mineralocorticoid:Androgen Ratio” value is listed as 325. Moreover, in assay [1] (mineralocorticoid:androgen affinity ratio relative to spironolactone), the “Affinity ratio index compared with spironolactone” value is reported as about 40 times. Further, in the assay with adrenalectomized rat (setting [2]), the ED50 worked out at 0.25 mg/kg. For the same compound, in the assay on adrenalectomized rat (oral route), the “Dose of spironolactone relative to compound required for equivalent mineralocorticoid antagonist effect, oral” value is given as “four-fold”. Further, in the assay with adrenalectomized rat (setting [4]), the ED50 is 2.5 mg/kg. Moreover, the “In vivo antagonist activity compared with corresponding 7α-propionylthio derivative (Controls A, B, C, D)” value with adrenalectomized rat was “always more active”. The “Effectiveness relative to spironolactone, subcutaneous” value with adrenalectomized rat (subcutaneous route) was 10 times. In addition, in the assay on adrenalectomized rat (setting [3]), the “Mineralocorticoid antagonism Minimum effective dose” value turned out to be 25 μg/100 g.
Take `CC(=O)S[C@@H]1CC2=CC(=O)CC[C@]2(C)[C@H]2CC[C@@]3(C)[C@@H](CC[C@@]34CCC(=O)O4)[C@H]12` [Spironolactone, spironolactone, reference compound]: the “Corticosteroid Receptor Affinity % Mineralocorticoid” value in assay [1] amounted to 18%. In addition, the ED50 is 2.5 mg/kg with adrenalectomized rat (setting [2]) and 10 mg/kg in the assay with adrenalectomized rat (setting [4]). The “Mineralocorticoid antagonism Minimum effective dose” value in the assay with adrenalectomized rat (setting [3]) was found to be 250 μg/100 g.
On to `CCC(=O)S[C@@H]1CC2=CC(=O)CC[C@]2(C)[C@H]2CC[C@]3(C)[C@@H](C(=O)COC(C)=O)CC[C@H]3[C@H]12` [Control B, 7α-Propionylthio-21-acetoxy-4-pregnene-3,20-dione, reference compound], for which, in the assay on adrenalectomized rat (setting [2]), the ED50 amounted to 1 mg/kg.
As for `CCC(=O)S[C@@H]1CC2=CC(=O)CC[C@]2(C)[C@H]2CC[C@]3(C)[C@@H](C(C)=O)CC[C@H]3[C@H]12` [Control A, 7α-Propionylthio-4-pregnene-3,20-dione, reference compound], the ED50 in the assay on adrenalectomized rat (setting [2]) is 2 mg/kg.
Regarding `C[C@]12CCC(=O)C=C1CC[C@@H]1[C@@H]2[C@@H](O)C[C@]2(C=O)[C@@H](C(=O)CO)CC[C@@H]12` [Aldosterone, reference compound], the “Corticosteroid Receptor Affinity % Mineralocorticoid” value in assay [1] came to 100%.
For the compound `CCCCC(=O)OCC(=O)[C@H]1CC[C@H]2[C@@H]3[C@H](SC(C)=O)CC4=CC(=O)CC[C@]4(C)[C@H]3CC[C@]12C` [Example 6], in assay [1], the “Corticosteroid Receptor Affinity % Mineralocorticoid” value came out at 68% and the “Affinity Mineralocorticoid:Androgen Ratio” value is listed as 340. Also, in the assay with adrenalectomized rat (setting [2]), the ED50 was found to be 1.5 mg/kg.
As for `CC(=O)OCC(=O)[C@@]1(O)CC[C@H]2[C@H]3[C@H]([C@@H](O)C[C@@]21C)[C@@]1(C)CCC(=O)C=C1C[C@H]3SC(C)=O` [Control E, 7α-Acetylthio-21-acetoxy-11β-dihydroxy-4-pregnene-3,20-dione, reference compound], the “Mineralocorticoid antagonism Minimum effective dose” value in the assay with adrenalectomized rat (setting [3]) is “inactive”.
On to `CCCC(=O)OCC(=O)[C@H]1CC[C@H]2[C@@H]3[C@H](SC(=O)CC)CC4=CC(=O)CC[C@]4(C)[C@H]3CC[C@]12C` [Control C, 7α-Propionylthio-21-butyroxy-4-pregnene-3,20-dione, reference compound], for which the ED50 in the assay with adrenalectomized rat (setting [2]) is 1.5 mg/kg.
Take `CCCC(=O)OCC(=O)[C@H]1CC[C@H]2[C@@H]3[C@H](SC(C)=O)CC4=CC(=O)CC[C@]4(C)[C@H]3CC[C@]12C` [Example 5]: in assay [1], the “Corticosteroid Receptor Affinity % Mineralocorticoid” value amounted to 60% and the “Affinity Mineralocorticoid:Androgen Ratio” value is recorded as 300. In the assay on adrenalectomized rat (setting [2]), the ED50 was 0.5 mg/kg. The “In vivo antagonist activity compared with corresponding 7α-propionylthio derivative (Controls A, B, C, D)” value in the assay on adrenalectomized rat is “always more active”.
